Test results: patent US8846653B2, “Delta-tocotrienol treatment and prevention of pancreatic cancer” (University of South Florida, priority 2006, dated 2014)

Legend:
[1] = system: MiaPaCa-2 cells; assay: MTS assay of MiaPaCa2 cultures, single 50 μM dose; format: cell-based, human; conditions: MiaPaCa2, 50 μM
In short: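 This MTS viability assay used MiaPaCa2 cultures treated once with 50 μM compound or vehicle, with an untreated culture grown in parallel for comparison. Cells were maintained in DMEM supplemented with 10% FBS, 1% penicillin-streptomycin and 1% L-glutamine at 37° C. under 5% CO2 and humidity.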

[2] = system: AsPc1 pancreatic cancer cells; assay: Effect of tocotrienols on pancreatic cancer proliferation (MTT), 72 hours; format: cell-based, human; conditions: AsPc1, 40 to 100 μM, vs vehicle
Excerpt: (§1) FIGS. 11A and B are graphs showing the effect of tocotrienols on pancreatic cancer proliferation (MTT). […] Points, means; bars, SE (n=3).

[3] = system: MiaPaCa2 pancreatic cancer cells; assay: as above; format: cell-based, human; conditions: MiaPaCa2, 40 to 100 μM, vs vehicle
Excerpt: as §1

[4] = system: MiaPaCa2 pancreatic cancer cells; assay: Malignant transformation (Soft Agar) colony formation; format: cell-based, human; conditions: MiaPaCa2, 50 μM, vs vehicle
Experimental: FIG. 20 is a graph showing the effect of tocotrienols on pancreatic cancer malignant transformation (Soft Agar). […] Bars, SE (n=3). *p<0.001 vs. vehicle. **p<0.02 vs. vehicle. ***p<0.05 vs. vehicle. T=tocopherol, T3=tocotrienol.
MiaPaCa2 cells (3×10^3) were cultured as described in the Examples above, in 96-well plates and treated with 50 μM of different tocopherol or tocotrienol.

[5] = system: human pancreatic ductal epithelial cells transformed with oncogenic K-ras (HPDE-K-ras); assay: Proliferation (MTT) of K-ras transformed ductal epithelial cells; format: cell-based; conditions: 72 hours
Experimental: FIGS. 36A and B are graphs showing the effect of tocotrienols on Human Pancreatic Ductal Epithelial Kras Transformed cells (MTT). (A) Tocotrienols (10-100 μM) had no effect on the proliferation of normal immortalized human pancreatic ductal epithelial cells at 72 hours. […] Points, means; bars, SE (n=3). *p<0.001 vs. vehicle. # p<0.02 vs. vehicle
The Ras effector pathways Raf-MEK-ERK and PI3 kinase-AKT are important for cell proliferation and survival, respectively. Pancreatic cancer cell lines (MIA PaCa2, SW1990, BXPC3) and HPDE 6C7 cells were treated with 8-tocotrienol (20 μM) and cell lysates were collected and prepared at progressive time intervals as described above. Proteins from lysates were run by SDS PAGE and immunoblotted with the following antibodies: Ras, p-cRaf (ser 338), p-MEK1/2, MEK1/2, pERK 44/42, ERK 44/42 (Cell Signaling) and c-Raf (BD Transduction Laboratories). […] The MIA PaCa2 and SW1990 cells were then tested for AKT inhibition. The cells were treated with δ-tocotrienol (20 μM) for 24 and 48 hours and cell lysates were run by SDS-PAGE and immunoblotted for p-AKT and AKT (Cell Signaling). […] Taken together, the inhibition of downstream effectors of oncogenic Ras signaling by δ-tocotrienol without an effect on Ras protein levels may indicate a negative regulatory role of 8-tocotrienol on the function of oncogenic Ras. The pancreatic ductal epithelial cell proliferative inhibition by δ-tocotrienol was tested to see if it occurs through blocking aberrant signal transduction cascades. Immortalized human pancreatic ductal epithelial cells (HPDE) and human pancreatic ductal epithelial cells that were transformed by stable transfection of a mutated K-ras oncogene (HPDE-K-ras) were used to test the. effect of tocotrienols on the proliferation of HPDE and HPDE-K-ras.

[6] = system: MiaPaCa2 pancreatic cancer cells; assay: Cell death by trypan blue assay, 72 hours; format: cell-based, human; conditions: MiaPaCa2, 50 μM
Experimental: (§2) FIGS. 38A and B are graphs showing the effect of tocotrienols on pancreatic cancer survival (Trypan Blue and Cell death ELISA). […] T3=tocotrienol, T=tocopherol, vit E=vitamin E succinate, gem=gemcitabine, 5-FU=fluorouracil.
(§3) MIA PaCa2 cells (3×10^3) were plated in 96 well plates and treated the following day with different compositions of tocoperhol, tocotrienol, gemcitabine, or fluorouracil. The cells were harvested 72 hours later and tested using trypan blue assay and cell death ELISA.

[7] = system: MiaPaCa2 pancreatic cancer cells; assay: Apoptosis by cell death ELISA, 72 hours; format: cell-based, human; conditions: MiaPaCa2, 50 μM
Experimental: as §2, §3

[8] = system: BxPc-3 cells; assay: Annexin V-FITC staining, flow cytometry for apoptosis; format: cell-based, human; conditions: BxPc-3, varying concentrations, 24 hours
Experimental: FIG. 4 is a graph wherein BXPC3 pancreatic cancer cells were treated with in varying concentrations of δ-tocotrienol or vehicle for 24 hours. Cells were collected and stained with Annexin V-FITC and analyzed by flow cytometry for apoptosis.
MiaPaCa2 and HPDE 6C7 cells were cultured, as discussed above, and treated with δ-tocotrienol or vehicle. […] MiaPaCa-2, BxPc-3, and SW1990 pancreatic cancer cells were treated with in varying concentrations of δ-tocotrienol or vehicle for 24 hours. The cells were then harvested for annexin V-FITC staining and analyzed by flow cytometry.

CC(C)=CCC/C(C)=C/CC/C(C)=C/CC[C@]1(C)CCc2cc(O)cc(C)c2O1 [T3 delta, delta tocotrienol]
rel amt (relative value set to the control) ([1]; 24 hours): 77 | MTS assay result, run 1 ([1]; 24 hours): 0.174 | MTS assay result, run 2 ([1]; 24 hours): 0.159 | MTS assay result, run 3 ([1]; 24 hours): 0.171 | MTS assay result, run 4 ([1]; 24 hours): 0.139 | MTS assay result, run 5 ([1]; 24 hours): 0.185 | MTS assay result, run 6 ([1]; 24 hours): 0.187 | MTS assay result, run 7 ([1]; 24 hours): 0.18 | MTS assay result, run 8 ([1]; 24 hours): 0.167 | MTS assay result, run 9 ([1]; 24 hours): 0.170 | rel amt (relative value set to the control) ([1]; 48 hours): 67 | MTS assay result, run 1 ([1]; 48 hours): 0.229 | MTS assay result, run 2 ([1]; 48 hours): 0.22 | MTS assay result, run 3 ([1]; 48 hours): 0.218 | MTS assay result, run 4 ([1]; 48 hours): 0.232 | MTS assay result, run 5 ([1]; 48 hours): 0.294 | MTS assay result, run 6 ([1]; 48 hours): 0.272 | MTS assay result, run 7 ([1]; 48 hours): 0.221 | MTS assay result, run 8 ([1]; 48 hours): 0.243 | MTS assay result, run 9 ([1]; 48 hours): 0.241 | rel amt (relative value set to the control) ([1]; 72 hours): 132 | MTS assay result, run 1 ([1]; 72 hours): 0.667 | MTS assay result, run 2 ([1]; 72 hours): 0.615 | MTS assay result, run 3 ([1]; 72 hours): 0.605 | MTS assay result, run 4 ([1]; 72 hours): 0.587 | MTS assay result, run 5 ([1]; 72 hours): 0.582 | MTS assay result, run 6 ([1]; 72 hours): 0.491 | MTS assay result, run 7 ([1]; 72 hours): 0.524 | MTS assay result, run 8 ([1]; 72 hours): 0.604 | MTS assay result, run 9 ([1]; 72 hours): 0.584 | proliferation (MTT) [2]: significantly decreased the proliferation | proliferation (MTT) [3]: significantly decreased the proliferation | malignant transformation (Soft Agar) [4]: significantly inhibited the malignant transformation | proliferation (MTT) [5]: significantly inhibited | cell death (Trypan Blue) [6]: significantly induced the death | apoptosis (Cell death ELISA) [7]: significantly induced | induction of apoptosis (annexin V-FITC) [8]: dose dependent induction of apoptosis
